{
  "source": "paper PMC11995724",
  "about": "“Antibiotic target discovery by integrated phenotypic and activity-based profiling of electrophilic fragments” (Cell chemical biology, 2025)",
  "test": "in vitro",
  "settings": "human, hek293t cells",
  "note": "Where a name gives a salt, the structure may show the parent alone.",
  "data": [
    {"smiles": "CC(Cl)C(=O)Nc1ccc(OC(F)F)c(Cl)c1", "note": "(stereo not shown) [4-F18, 2-chloro-N-[3-chloro-4-(difluoromethoxy)phenyl]propanamide]", "values": [
      {"measurement": "viability at 48 h, 25 µM", "value": 91.5, "unit": "%"}
    ]},
    {"smiles": "CCc1ccc(Cc2cnc(NC(=O)CCl)s2)cc1", "note": "[4-F19, 2-chloro-N-{5-[(4-ethylphenyl)methyl]-1,3-thiazol-2-yl}acetamide]", "values": [
      {"measurement": "viability at 48 h, 25 µM", "value": 0.0785, "unit": "%"}
    ]},
    {"smiles": "COc1ccc(-n2c(C)c(C)c(C#N)c2NC(=O)CCl)cc1", "note": "[4-F20, 2-chloro-N-[3-cyano-1-(4-methoxyphenyl)-4,5-dimethyl-1H-pyrrol-2-yl]acetamide]", "values": [
      {"measurement": "viability at 48 h, 25 µM", "value": 0.583, "unit": "%"}
    ]},
    {"smiles": "Cc1cc(NC(=O)CCl)c([N+](=O)[O-])cc1C", "note": "[4-F21, 2-chloro-N-(4,5-dimethyl-2-nitrophenyl)acetamide]", "values": [
      {"measurement": "viability at 48 h, 25 µM", "value": 112, "unit": "%"}
    ]},
    {"smiles": "O=C(CCl)NCc1ccccc1S(=O)(=O)N1CCOCC1", "note": "[4-F22, 2-chloro-N-{[2-(morpholine-4-sulfonyl)phenyl]methyl}acetamide]", "values": [
      {"measurement": "viability at 48 h, 25 µM", "value": 2.15, "unit": "%"}
    ]},
    {"smiles": "Cc1ccc(Sc2ccc(NC(=O)CCl)cc2)cc1C", "note": "[4-G03, 2-chloro-N-{4-[(3,4-dimethylphenyl)sulfanyl]phenyl}acetamide]", "values": [
      {"measurement": "viability at 48 h, 25 µM", "value": -0.101, "unit": "%"}
    ]},
    {"smiles": "O=C(CCl)NC(c1ccccc1)c1ccc(Cl)cc1", "note": "(stereo not shown) [4-G04, 2-chloro-N-[(4-chlorophenyl)(phenyl)methyl]acetamide]", "values": [
      {"measurement": "viability at 48 h, 25 µM", "value": -0.0119, "unit": "%"}
    ]},
    {"smiles": "Cc1cc(NC(=O)CCl)n(-c2ccccc2)n1", "note": "[4-G05, 2-chloro-N-(3-methyl-1-phenyl-1H-pyrazol-5-yl)acetamide]", "values": [
      {"measurement": "viability at 48 h, 25 µM", "value": 0.983, "unit": "%"}
    ]},
    {"smiles": "CC(Cl)C(=O)Nc1ccc2c(c1)C(=O)c1ccccc1C2=O", "note": "(stereo not shown) [4-G06, 2-chloro-N-(9,10-dioxo-9,10-dihydroanthracen-2-yl)propanamide]", "values": [
      {"measurement": "viability at 48 h, 25 µM", "value": 58.6, "unit": "%"}
    ]},
    {"smiles": "CC(=O)c1ccc(NC(=O)CCl)cc1", "note": "[4-G07, N-(4-acetylphenyl)-2-chloroacetamide]", "values": [
      {"measurement": "viability at 48 h, 25 µM", "value": 0.0514, "unit": "%"}
    ]},
    {"smiles": "O=C(CCl)NCc1ccccc1CS(=O)(=O)N1CCOCC1", "note": "[4-G08, 2-chloro-N-({2-[(morpholine-4-sulfonyl)methyl]phenyl}methyl)acetamide]", "values": [
      {"measurement": "viability at 48 h, 25 µM", "value": 0.79, "unit": "%"}
    ]},
    {"smiles": "COc1cc(NC(=O)CCl)cc(OC)c1", "note": "[4-G09, 2-chloro-N-(3,5-dimethoxyphenyl)acetamide]", "values": [
      {"measurement": "viability at 48 h, 25 µM", "value": 8.6, "unit": "%"}
    ]},
    {"smiles": "O=C(CCl)Nc1ccccc1C(=O)Nc1ccc(Cl)cc1", "note": "[4-G10, 2-(2-chloroacetamido)-N-(4-chlorophenyl)benzamide]", "values": [
      {"measurement": "viability at 48 h, 25 µM", "value": 0.0501, "unit": "%"}
    ]},
    {"smiles": "COc1cc(OC)c(NC(=O)CCl)cc1Cl", "note": "[4-G11, 2-chloro-N-(5-chloro-2,4-dimethoxyphenyl)acetamide]", "values": [
      {"measurement": "viability at 48 h, 25 µM", "value": 0.402, "unit": "%"}
    ]},
    {"smiles": "CC(Cl)C(=O)Nc1ccc(C(C)(C)C)cc1", "note": "(stereo not shown) [4-G12, N-(4-tert-butylphenyl)-2-chloropropanamide]", "values": [
      {"measurement": "viability at 48 h, 25 µM", "value": 66.1, "unit": "%"}
    ]},
    {"smiles": "O=C(CCl)N(Cc1ccccc1)c1ccccc1", "note": "[4-G13, N-benzyl-2-chloro-N-phenylacetamide]", "values": [
      {"measurement": "viability at 48 h, 25 µM", "value": 1.23, "unit": "%"}
    ]},
    {"smiles": "CC(Cl)C(=O)Nc1ccccc1-c1ccccc1", "note": "(stereo not shown) [4-G14, N-{[1,1'-biphenyl]-2-yl}-2-chloropropanamide]", "values": [
      {"measurement": "viability at 48 h, 25 µM", "value": 69.4, "unit": "%"}
    ]},
    {"smiles": "CCCSc1nsc(NC(=O)CCl)n1", "note": "[4-G15, 2-chloro-N-[3-(propylsulfanyl)-1,2,4-thiadiazol-5-yl]acetamide]", "values": [
      {"measurement": "viability at 48 h, 25 µM", "value": 17.4, "unit": "%"}
    ]},
    {"smiles": "CC1CCN(C(=O)CCl)c2cc(Cl)ccc2S1", "note": "(stereo not shown) [4-G16, 2-chloro-1-(7-chloro-2-methyl-2,3,4,5-tetrahydro-1,5-benzothiazepin-5-yl)ethan-1-one]", "values": [
      {"measurement": "viability at 48 h, 25 µM", "value": 0.484, "unit": "%"}
    ]},
    {"smiles": "Cc1cc(C)c(-c2csc(NC(=O)CCl)n2)cc1C", "note": "[4-G17, 2-chloro-N-[4-(2,4,5-trimethylphenyl)-1,3-thiazol-2-yl]acetamide]", "values": [
      {"measurement": "viability at 48 h, 25 µM", "value": 0.339, "unit": "%"}
    ]},
    {"smiles": "CC(Cl)C(=O)Nc1ccccc1[N+](=O)[O-]", "note": "(stereo not shown) [4-G18, 2-chloro-N-(2-nitrophenyl)propanamide]", "values": [
      {"measurement": "viability at 48 h, 25 µM", "value": 103, "unit": "%"}
    ]},
    {"smiles": "O=C(CCl)N(CC=Cc1ccccc1)c1ccc2c(c1)OCCO2", "note": "[4-G19, 2-chloro-N-(2,3-dihydro-1,4-benzodioxin-6-yl)-N-(3-phenylprop-2-en-1-yl)acetamide]", "values": [
      {"measurement": "viability at 48 h, 25 µM", "value": 0.292, "unit": "%"}
    ]},
    {"smiles": "COc1ccc(C2=NN(C(=O)CCl)C(c3cccc(C)c3)C2)cc1", "note": "(stereo not shown) [4-G20, 2-chloro-1-[3-(4-methoxyphenyl)-5-(3-methylphenyl)-4,5-dihydro-1H-pyrazol-1-yl]ethan-1-one]", "values": [
      {"measurement": "viability at 48 h, 25 µM", "value": -0.0034, "unit": "%"}
    ]},
    {"smiles": "O=C(CCl)NCCSc1ccccc1", "note": "[4-G21, 2-chloro-N-[2-(phenylsulfanyl)ethyl]acetamide]", "values": [
      {"measurement": "viability at 48 h, 25 µM", "value": 1.68, "unit": "%"}
    ]},
    {"smiles": "CC(=O)Nc1ccc(C2=NN(C(=O)CCl)C(c3ccco3)C2)cc1", "note": "(stereo not shown) [4-G22, N-{4-[1-(2-chloroacetyl)-5-(furan-2-yl)-4,5-dihydro-1H-pyrazol-3-yl]phenyl}acetamide]", "values": [
      {"measurement": "viability at 48 h, 25 µM", "value": 0.156, "unit": "%"}
    ]},
    {"smiles": "CC(C)Cc1ccc(C(C)NC(=O)CCl)cc1", "note": "(stereo not shown) [4-H03, 2-chloro-N-{1-[4-(2-methylpropyl)phenyl]ethyl}acetamide]", "values": [
      {"measurement": "viability at 48 h, 25 µM", "value": 0.63, "unit": "%"}
    ]},
    {"smiles": "CN(c1ccccc1)S(=O)(=O)c1cccc(NC(=O)CCl)c1", "note": "[4-H04, 2-chloro-N-{3-[methyl(phenyl)sulfamoyl]phenyl}acetamide]", "values": [
      {"measurement": "viability at 48 h, 25 µM", "value": 0.751, "unit": "%"}
    ]},
    {"smiles": "O=C(CCl)NCCC1=CCCCC1", "note": "[4-H05, 2-chloro-N-[2-(cyclohex-1-en-1-yl)ethyl]acetamide]", "values": [
      {"measurement": "viability at 48 h, 25 µM", "value": 20.9, "unit": "%"}
    ]},
    {"smiles": "O=C(CCl)Nc1ccc(S(=O)(=O)N2CCCCC2)cc1", "note": "[4-H06, 2-chloro-N-[4-(piperidine-1-sulfonyl)phenyl]acetamide]", "values": [
      {"measurement": "viability at 48 h, 25 µM", "value": 0.963, "unit": "%"}
    ]},
    {"smiles": "O=C(CCl)N(Cc1ccc(Cl)cc1)C12CC3CC(CC(C3)C1)C2", "note": "[4-H07, N-(adamantan-1-yl)-2-chloro-N-[(4-chlorophenyl)methyl]acetamide]", "values": [
      {"measurement": "viability at 48 h, 25 µM", "value": -0.34, "unit": "%"}
    ]},
    {"smiles": "O=C(CCl)Nc1nc2ccc([N+](=O)[O-])cc2s1", "note": "[4-H08, 2-chloro-N-(6-nitro-1,3-benzothiazol-2-yl)acetamide]", "values": [
      {"measurement": "viability at 48 h, 25 µM", "value": 0.244, "unit": "%"}
    ]},
    {"smiles": "Cc1ccc(C)c(Sc2ccc(NC(=O)CCl)cc2)c1", "note": "[4-H09, 2-chloro-N-{4-[(2,5-dimethylphenyl)sulfanyl]phenyl}acetamide]", "values": [
      {"measurement": "viability at 48 h, 25 µM", "value": -0.157, "unit": "%"}
    ]},
    {"smiles": "CSc1cccc(NC(=O)CCl)c1", "note": "[4-H10, 2-chloro-N-[3-(methylsulfanyl)phenyl]acetamide]", "values": [
      {"measurement": "viability at 48 h, 25 µM", "value": 1.13, "unit": "%"}
    ]},
    {"smiles": "CC(Cl)C(=O)Nc1cc(C(C)(C)C)nn1-c1ccccc1", "note": "(stereo not shown) [4-H11, N-(3-tert-butyl-1-phenyl-1H-pyrazol-5-yl)-2-chloropropanamide]", "values": [
      {"measurement": "viability at 48 h, 25 µM", "value": 93, "unit": "%"}
    ]},
    {"smiles": "COc1ccc(OC)c(-c2csc(NC(=O)CCl)n2)c1", "note": "[4-H12, 2-chloro-N-[4-(2,5-dimethoxyphenyl)-1,3-thiazol-2-yl]acetamide]", "values": [
      {"measurement": "viability at 48 h, 25 µM", "value": 1.27, "unit": "%"}
    ]},
    {"smiles": "CC(Cl)C(=O)Nc1sc(-c2ccccc2)cc1C(N)=O", "note": "(stereo not shown) [4-H13, 2-(2-chloropropanamido)-5-phenylthiophene-3-carboxamide]", "values": [
      {"measurement": "viability at 48 h, 25 µM", "value": 80.6, "unit": "%"}
    ]},
    {"smiles": "O=C(CCl)N1CCN(CCOc2ccccc2)CC1", "note": "[4-H14, 2-chloro-1-[4-(2-phenoxyethyl)piperazin-1-yl]ethan-1-one hydrochloride]", "values": [
      {"measurement": "viability at 48 h, 25 µM", "value": 1.67, "unit": "%"}
    ]},
    {"smiles": "Cc1cc(S(=O)(=O)N(C)C)cc(NC(=O)CCl)c1C", "note": "[4-H15, 2-chloro-N-[5-(dimethylsulfamoyl)-2,3-dimethylphenyl]acetamide]", "values": [
      {"measurement": "viability at 48 h, 25 µM", "value": 1.33, "unit": "%"}
    ]},
    {"smiles": "Cc1ccc(C(NC(=O)CCl)c2cccs2)cc1", "note": "(stereo not shown) [4-H16, 2-chloro-N-[(4-methylphenyl)(thiophen-2-yl)methyl]acetamide]", "values": [
      {"measurement": "viability at 48 h, 25 µM", "value": 0.348, "unit": "%"}
    ]},
    {"smiles": "O=C(CCl)NCCSc1ccc(Cl)cc1", "note": "[4-H17, 2-chloro-N-{2-[(4-chlorophenyl)sulfanyl]ethyl}acetamide]", "values": [
      {"measurement": "viability at 48 h, 25 µM", "value": 0.813, "unit": "%"}
    ]}
  ]
}
